“And” between values parts separate entries of the source, which are not always exact repeats. Identical values can stand only once.
Tested on: Swiss mice, Sarcoma 180 sc, mean tumor weight T/C
Assay: NCI In Vivo Anticancer Drug Screen. Data for tumor model Sarcoma 180 (subcutaneous) in Swiss mice
Details: endpoint: mean tumor weight, higher = larger tumour
In short: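 Readout is the ratio of treated-group measurement to vehicle-control measurement (T/C), based on survival or tumor size in mice carrying transplanted tumors.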

[1] = dose: 250.0 mg/kg/injection, schedule: Q01DX007 (ip), vehicle: carboxymethylcellulose (CMC)
[2] = dose: 1.5 mg/kg/injection, schedule: Q01DX007 (ip), vehicle: carboxymethylcellulose (CMC)
[3] = dose: 12.0 mg/kg/injection, schedule: Q01DX007 (ip), vehicle: carboxymethylcellulose (CMC)

## CCOC(=O)CCc1ccc(N=NN2CCCC2)cc1
dose: 225.0 mg/kg/injection, schedule: Q01DX007 (ip), vehicle: carboxymethylcellulose (CMC)
  T/C: 110 % of control
dose: 450.0 mg/kg/injection, schedule: Q01DX007 (ip), vehicle: carboxymethylcellulose (CMC)
  T/C: 95 % of control

## CS(=O)(=O)OCCCl
dose: 6.67 mg/kg/injection, schedule: Q#A X014 (ip), vehicle: carboxymethylcellulose (CMC)
  T/C: 92 % of control
dose: 13.35 mg/kg/injection, schedule: Q01DX007 (ip), vehicle: carboxymethylcellulose (CMC)
  T/C: 117 % of control
dose: 13.35 mg/kg/injection, schedule: Q#A X014 (ip), vehicle: carboxymethylcellulose (CMC)
  T/C: 95 % of control
dose: 26.7 mg/kg/injection, schedule: Q01DX007 (ip), vehicle: carboxymethylcellulose (CMC)
  T/C: 106 % of control
dose: 26.7 mg/kg/injection, schedule: Q#A X014 (ip), vehicle: carboxymethylcellulose (CMC)
  T/C: 86 % of control
dose: 53.4 mg/kg/injection, schedule: Q01DX007 (ip), vehicle: carboxymethylcellulose (CMC)
  T/C: 100 % of control
dose: 106.8 mg/kg/injection, schedule: Q01DX007 (ip), vehicle: carboxymethylcellulose (CMC)
  T/C: 94 % of control

## CC(=O)Nc1cc2c(cc1[N+](=O)[O-])-c1ccccc1C2O (centres undefined)
dose: 98.0 mg/kg/injection, schedule: Q01DX007 (ip), vehicle: other
  T/C: 100 % of control
dose: 148.0 mg/kg/injection, schedule: Q01DX007 (ip), vehicle: other
  T/C: 120 % of control
dose: 333.0 mg/kg/injection, schedule: Q01DX007 (ip), vehicle: other
  T/C: 65 % of control and 67 % of control
dose: 333.0 mg/kg/injection, schedule: Q01DX007 (ip), vehicle: saline
  T/C: 81 % of control
dose: 500.0 mg/kg/injection, schedule: Q01DX007 (ip), vehicle: other
  T/C: 25 % of control
dose: 500.0 mg/kg/injection, schedule: Q01DX007 (ip), vehicle: saline
  T/C: 93 % of control
dose: 750.0 mg/kg/injection, schedule: Q01DX007 (ip), vehicle: saline
  T/C: 64 % of control

## CC(N)C(=O)NC1(C(=O)O)CCCC1 (centres undefined)
dose: 7.5 mg/kg/injection, schedule: Q#A X014 (ip), vehicle: carboxymethylcellulose (CMC)
  T/C: 75 % of control
dose: 15.0 mg/kg/injection, schedule: Q#A X014 (ip), vehicle: carboxymethylcellulose (CMC)
  T/C: 56 % of control
dose: 30.0 mg/kg/injection, schedule: Q#A X014 (ip), vehicle: carboxymethylcellulose (CMC)
  T/C: 62 % of control
dose: 60.0 mg/kg/injection, schedule: Q#A X014 (ip), vehicle: carboxymethylcellulose (CMC)
  T/C: 46 % of control

## CC1=CC(O)C(O)C2(C)C1CC1OC(=O)C(O)C3C(C)C(O)C4(O)OCC13C42 (centres undefined)
dose: 5.0 mg/kg/injection, schedule: Q01DX007 (sc), vehicle: olive oil, sesame oil, peanut oil
  T/C: 90 % of control
dose: 10.0 mg/kg/injection, schedule: Q01DX007 (sc), vehicle: olive oil, sesame oil, peanut oil
  T/C: 64 % of control
dose: 20.0 mg/kg/injection, schedule: Q01DX007 (sc), vehicle: olive oil, sesame oil, peanut oil
  T/C: 96 % of control
dose: 40.0 mg/kg/injection, schedule: Q01DX007 (sc), vehicle: olive oil, sesame oil, peanut oil
  T/C: 85 % of control and 86 % of control
dose: 135.0 mg/kg/injection, schedule: Q01DX007 (sc), vehicle: olive oil, sesame oil, peanut oil
  T/C: 83 % of control

## Nc1nc(SCc2ccccn2)c2ncn(C3OC(CO)C(O)C3O)c2n1 (centres undefined)
dose: 11.1 mg/kg/injection, schedule: Q#A X014 (ip), vehicle: methylcellulose (MC)
  T/C: 52 % of control
dose: 16.65 mg/kg/injection, schedule: Q#A X014 (ip), vehicle: methylcellulose (MC)
  T/C: 48 % of control
dose: 25.0 mg/kg/injection, schedule: Q#A X014 (ip), vehicle: methylcellulose (MC)
  T/C: 37 % of control
dose: 37.5 mg/kg/injection, schedule: Q#A X014 (ip), vehicle: methylcellulose (MC)
  T/C: 41 % of control

## CC1CN1P(=O)(Oc1ccccc1)N1CC1C (centres undefined)
dose: 27.5 mg/kg/injection, schedule: Q#A X014 (ip), vehicle: saline
  T/C: 60 % of control and 67 % of control and 84 % of control
dose: 62.5 mg/kg/injection, schedule: Q#A X014 (ip), vehicle: saline
  T/C: 13 % of control and 20 % of control

## C[C@H](N)C(=O)N[C@@H]1[C@H]2C(=C(O)C[C@@H](O)[C@@H]2O)C(=O)O[C@@H]1C
[1]
  T/C: 66 % of control
dose: 500.0 mg/kg/injection, schedule: Q01DX007 (ip), vehicle: carboxymethylcellulose (CMC)
  T/C: 42 % of control
dose: 1000.0 mg/kg/injection, schedule: Q01DX007 (ip), vehicle: carboxymethylcellulose (CMC)
  T/C: 12 % of control

## Clc1[nH]nc2ccccc12
dose: 42.0 mg/kg/injection, schedule: Q#A X014 (ip), vehicle: methylcellulose (MC)
  T/C: 62 % of control and 85 % of control (2×)

## CCCN(C)/N=N/c1nc[nH]c1C(N)=O
dose: 31.0 mg/kg/injection, schedule: Q01DX007 (ip), vehicle: carboxymethylcellulose (CMC)
  T/C: 55 % of control
dose: 46.0 mg/kg/injection, schedule: Q01DX007 (ip), vehicle: carboxymethylcellulose (CMC)
  T/C: 37 % of control
dose: 62.0 mg/kg/injection, schedule: Q01DX007 (ip), vehicle: carboxymethylcellulose (CMC)
  T/C: 34 % of control

## CC(=O)Nc1ccc2c(c1)Cc1cc(NC=O)ccc1-2
dose: 110.0 mg/kg/injection, schedule: Q01DX007 (ip), vehicle: carboxymethylcellulose (CMC)
  T/C: 54 % of control and 72 % of control
dose: 165.0 mg/kg/injection, schedule: Q01DX007 (ip), vehicle: carboxymethylcellulose (CMC)
  T/C: 87 % of control
[1]
  T/C: 46 % of control
dose: 375.0 mg/kg/injection, schedule: Q01DX007 (ip), vehicle: carboxymethylcellulose (CMC)
  T/C: 79 % of control

## C[C@]12CC[C@H](O)C[C@H]1CC[C@@H]1[C@@H]2CC[C@]2(C)[C@@H](C3=CC(=O)OC3)CC[C@]12O
dose: 5.0 mg/kg/injection, schedule: Q01DX007 (ip), vehicle: carboxymethylcellulose (CMC)
  T/C: 79 % of control
dose: 10.0 mg/kg/injection, schedule: Q01DX007 (ip), vehicle: carboxymethylcellulose (CMC)
  T/C: 68 % of control
dose: 25.0 mg/kg/injection, schedule: Q01DX007 (ip), vehicle: carboxymethylcellulose (CMC)
  T/C: 86 % of control

## Clc1c(Cl)c(Cl)c(SCc2ccccc2)c(Cl)c1Cl
dose: 111.0 mg/kg/injection, schedule: Q#A X014 (ip), vehicle: saline
  T/C: 83 % of control
dose: 166.5 mg/kg/injection, schedule: Q#A X014 (ip), vehicle: saline
  T/C: 70 % of control
dose: 250.0 mg/kg/injection, schedule: Q#A X014 (ip), vehicle: saline
  T/C: 42 % of control
dose: 375.0 mg/kg/injection, schedule: Q#A X014 (ip), vehicle: saline
  T/C: 38 % of control

## C/C=C1/CN(C)C2Cc3c([nH]c4ccccc34)C(c3cc4[nH]c5c(c4cc3OC)CCN3CC4CC(C(C)O)C3C5(C(=O)OC)C4)CC1C2C(=O)OC (centres undefined)
dose: 10.0 mg/kg/injection, schedule: Q01DX007 (ip), vehicle: water
  T/C: 54 % of control
dose: 20.0 mg/kg/injection, schedule: Q01DX007 (ip), vehicle: water
  T/C: 97 % of control
dose: 30.0 mg/kg/injection, schedule: Q01DX007 (ip), vehicle: water
  T/C: 87 % of control
dose: 40.0 mg/kg/injection, schedule: Q01DX007 (ip), vehicle: water
  T/C: 80 % of control

## COc1ccc2c(=O)oc3c(OC)cc(CCN(C)C)c4c(=O)oc1c2c34
dose: 0.8 mg/kg/injection, schedule: Q01DX007 (ip), vehicle: water
  T/C: 113 % of control
dose: 1.6 mg/kg/injection, schedule: Q01DX007 (ip), vehicle: water
  T/C: 77 % of control
dose: 3.2 mg/kg/injection, schedule: Q01DX007 (ip), vehicle: water
  T/C: 108 % of control
dose: 6.3 mg/kg/injection, schedule: Q01DX007 (ip), vehicle: water
  T/C: 86 % of control

## CCc1nc(N)nc(N)c1-c1ccc(Cl)c(Cl)c1.O.O.[Zn]
[2]
  T/C: 62 % of control
dose: 2.3 mg/kg/injection, schedule: Q01DX007 (ip), vehicle: carboxymethylcellulose (CMC)
  T/C: 65 % of control
dose: 3.5 mg/kg/injection, schedule: Q01DX007 (ip), vehicle: carboxymethylcellulose (CMC)
  T/C: 46 % of control
dose: 8.0 mg/kg/injection, schedule: Q01DX007 (ip), vehicle: carboxymethylcellulose (CMC)
  T/C: 39 % of control
[3]
  T/C: 18 % of control

## NCCCC(NC(=O)CCCCCCCCN=C(N)N)C(O)CCCCCCCCN=C(N)N (centres undefined)
dose: 0.38 mg/kg/injection, schedule: Q01DX007 (ip), vehicle: carboxymethylcellulose (CMC)
  T/C: 100 % of control
dose: 0.75 mg/kg/injection, schedule: Q01DX007 (ip), vehicle: carboxymethylcellulose (CMC)
  T/C: 97 % of control
[2]
  T/C: 113 % of control
dose: 3.0 mg/kg/injection, schedule: Q01DX007 (ip), vehicle: carboxymethylcellulose (CMC)
  T/C: 76 % of control
dose: 6.0 mg/kg/injection, schedule: Q01DX007 (ip), vehicle: carboxymethylcellulose (CMC)
  T/C: 92 % of control
dose: 9.0 mg/kg/injection, schedule: Q01DX007 (ip), vehicle: carboxymethylcellulose (CMC)
  T/C: 123 % of control
[3]
  T/C: 68 % of control
dose: 15.0 mg/kg/injection, schedule: Q01DX007 (ip), vehicle: carboxymethylcellulose (CMC)
  T/C: 47 % of control

## CC(C)OC(=O)C1(N)CCCC1
dose: 33.0 mg/kg/injection, schedule: Q#A X014 (ip), vehicle: saline
  T/C: 61 % of control
dose: 50.0 mg/kg/injection, schedule: Q#A X014 (ip), vehicle: saline
  T/C: 67 % of control
dose: 75.0 mg/kg/injection, schedule: Q#A X014 (ip), vehicle: saline
  T/C: 49 % of control
dose: 112.5 mg/kg/injection, schedule: Q#A X014 (ip), vehicle: saline
  T/C: 20 % of control

— PubChem BioAssay AID342 (DTP/NCI, 2004)
